For the assay, the target named is T1, rat ASCT2 (Rattus norvegicus, UniProt D3ZJ25).
T1 construct: The coding region of the cDNA was subcloned into the EcoRI site of the pBK-CMV vector; expressed in transfected cells; host or cells: HEK293 (human embryonic kidney), transient transfection, pBK-CMV vector
T1 sequence (D3ZJ25 1-555): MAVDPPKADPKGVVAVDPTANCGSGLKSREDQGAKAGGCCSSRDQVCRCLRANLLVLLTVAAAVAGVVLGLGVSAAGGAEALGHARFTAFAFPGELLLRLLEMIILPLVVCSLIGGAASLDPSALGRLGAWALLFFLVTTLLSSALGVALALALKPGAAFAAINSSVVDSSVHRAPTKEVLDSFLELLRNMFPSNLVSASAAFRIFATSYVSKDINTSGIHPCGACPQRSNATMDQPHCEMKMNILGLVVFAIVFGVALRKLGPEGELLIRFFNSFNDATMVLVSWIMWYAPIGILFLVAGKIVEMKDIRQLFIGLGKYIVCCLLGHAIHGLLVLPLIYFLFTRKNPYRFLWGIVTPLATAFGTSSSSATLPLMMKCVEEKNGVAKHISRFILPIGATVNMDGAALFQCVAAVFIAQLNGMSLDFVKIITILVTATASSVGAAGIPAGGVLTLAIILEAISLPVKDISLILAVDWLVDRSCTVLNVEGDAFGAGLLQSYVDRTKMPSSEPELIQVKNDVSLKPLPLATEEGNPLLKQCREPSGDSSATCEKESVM
The experiment in a line: Whole-cell patch-clamp recording of ASCT2-associated anion current in transfected HEK293 cells. The following applies: for Km: apparent Km for the active compounds from anion current dose response, called Ki in text for the inhibitors L-DOPS and γ-FBP; for Imax, maximum currents relative to 1 mM alanine: whole-cell anion current, membrane potential 0 mV, internal 130 mM NaSCN and 10 mM alanine, negative = outward current (inhibitor). The format is cell-based. From the text:
We used transporter-mediated anion current as a measure of transport/inhibition activity […] We have previously shown that anion current is a measure of transport activity, due to the kinetic coupling of transport and anion flux, and this fact is also well established for the homologous glutamate transporters, which have a much more rigorously determined pharmacology. Anion current is activated when the transporter visits certain states in the transport cycle, such as the fully Na^+/substrate occupied state (substrate-induced anion conductance), or the Na^+-bound state (leak conductance). Thus, transported substrates induce anion current and non-transported inhibitors block the leak anion current. […] Functional characterization by patch clamping is a powerful approach when combined with virtual screening that prioritizes molecules from large libraries, but precludes screening of large amounts of compounds due to its labor-intensive nature.
cDNA coding for rat ASCT2 was kindly provided by S. Bröer. The coding region of the cDNA was subcloned into the EcoRI site of the pBK-CMV vector (Stratagene). The cDNA construct was used to transiently transfect human embryonic kidney cells (HEK293, ATCC No. CGL 1573) with leptrime reagent (Polyplus, Ilkrich, France). Transfection was performed as detailed in the supplier’s instructions. Electrophysiological recordings were performed 24–48 h after transfection.
ASCT2-associated whole-cell currents were recorded with an Adams & List EPC7 amplifier (HEKA, Lambrecht, Germany) using voltage-clamp conditions. Open-tip electrode resistances were 2–3 MΩ and the series resistance (R S) was 5–8 MΩ. R S was not compensated in the recordings, as compensation had no effect on the magnitude of the observed currents. The extracellular bath solution contained (in mM): 140 NaMES, 2 MgGluconate2, 2 CaGluconate2, and 10 HEPES (MES = methanesulfonic acid, pH 7.4 / NaOH). The pipette solution contained (in mM): 130 NaSCN, 2 MgCl2, 10 EGTA, 10 HEPES, and 10 L-alanine/cysteine (pH 7.3 / NaOH). Using this intracellular solution, the transporters operate in the Na^+/alanine exchange mode. Here, external alanine is exchanged with internal alanine in the absence of net transport. The exchange mode is associated with the activation of an uncoupled anion current, which was used as an indirect measure of transport activity. The currents were low pass filtered at 3 kHz (EPC7 built-in filter) and digitized with a digitizer board (Digidata 1200, Axon Instruments, Foster City, CA, USA) at a sampling rate of 10–50 kHz (controlled by software, Axon PClamp7). All experiments were performed at room temperature. Rapid solution exchange was essentially performed as described previously. Briefly, substrates and inhibitors were applied to the ASCT2-expressing HEK293 cells with a quartz tube (350 μm tube diameter) positioned at a distance of ≈0.5 mm to the cell. The linear flow rate of the solutions emerging from the opening of the tube was approximately 5–10 cm/s.
For orientation: Patch clamp records ionic current or voltage across a cell membrane.

Read-outs that look alike come from different tables or passages of the source.

What is called Km is the substrate concentration at which the rate is half of its maximum.

As to `NC1(C(=O)O)COC1`, the Km was found to be 220 ± 20 µM and the “Imax, maximum currents relative to 1 mM alanine” value was found to be 1.17 ± 0.13.

With `NC(CCl)C(=O)O` (centres unmarked) [Chloroalanine], the Km was found to be 900 ± 120 µM and the “Imax, maximum currents relative to 1 mM alanine” value is 1.28 ± 0.22. The “Anion current response / ligand character” value (whole-cell current, result in words) is “activated inwardly-directed anion currents”.

As to `O=C(O)C1CC(Cc2ccccc2F)CN1` (centres unmarked) [γ-FBP], the Km was determined as 87 ± 22 µM and the “Imax, maximum currents relative to 1 mM alanine” value is listed as -0.64 ± 0.13. Further, the Ki (absence of alanine, read-out: apparent Ki in the absence of alanine) was determined as 87 ± 22 µM. Also, where the note is “alanine + compound”, the “Concentration down to which alanine activation is alleviated” value is at least 100 µM. For the setting “alanine-induced currents (100 μM alanine), read-out: Ki in the presence of alanine”, the Ki was determined as 250 ± 75 µM. Besides, the Response relative to saturating [alanine] (outward current) is -0.64 ± 0.13.

The values are drawn from article PMC4596572, “Ligand Discovery for the Alanine-Serine-Cysteine Transporter (ASCT2, SLC1A5) from Homology Modeling and Virtual Screening” (PLoS Computational Biology, 2015).
